Patent US8343990B2, “Substituted cyclopropyl compounds, compositions containing such compounds and methods of treatment” (Merck Sharp & Dohme Corp., priority 2008, dated 2013)

Molecular target: T1, GPR119 receptor (UniProt Q8TDV5, S309L, species not given)
T1 sequence (Q8TDV5 1-335 S309L): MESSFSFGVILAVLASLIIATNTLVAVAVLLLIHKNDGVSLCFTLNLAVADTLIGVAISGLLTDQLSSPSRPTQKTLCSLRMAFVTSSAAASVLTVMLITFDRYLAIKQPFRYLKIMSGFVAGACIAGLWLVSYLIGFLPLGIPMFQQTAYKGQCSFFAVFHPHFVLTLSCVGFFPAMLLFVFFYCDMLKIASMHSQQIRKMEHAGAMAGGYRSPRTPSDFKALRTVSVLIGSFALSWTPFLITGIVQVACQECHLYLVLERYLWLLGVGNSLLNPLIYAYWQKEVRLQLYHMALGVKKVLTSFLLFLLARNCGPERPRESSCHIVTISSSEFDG
Assay: GPR119 signaling, cyclic AMP (cAMP) homogenous time resolved fluorescence (HTRF) assay
Format: cell-based
Conditions: CHO cells with Gα15 and murine GPR119, or HEK293 Flp-In cells with human GPR119 S309L; table does not say which; read-out: Activity: inflection points, denoted as EC50 values (agonist activation of GPR119, cAMP)
Method in brief: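 Agonist-induced cAMP measured in CHO cells expressing Gα15 plus murine GPR119, or HEK293 Flp-In cells expressing human S309L variant. Suspended cells exposed to compound titration 60 min at room temperature, lysed, HTRF read after 60 min; EC50 and efficacy versus internal agonist from 4-parameter fit.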

| EC50 | SMILES |
| --- | --- |
| < 10 nM | Clc1cnc(N2CCC(C3CC3CCOc3ccc(-n4ccnn4)cn3)CC2)nc1 (single isomer, unassigned) [Ex 55a, Chiral cis-5-chloro-2-{4-[2-(2-{[5-(1H-1,2,3-triazol-1-yl)pyridin-2-yl]oxy}ethyl)cyclopropyl]piperidin-1-yl}pyrimidine] |
| < 10 nM | Clc1cnc(N2CCC([C@@H]3C[C@@H]3CCOc3ccc(-n4ccnn4)cc3)CC2)nc1 (single isomer, unassigned) [Ex 83aS, cis-5-chloro-2-[4-(2-{2-[4-(1H-1,2,3-triazol-1-yl)phenoxy]ethyl}cyclopropyl)piperidin-1-yl]pyrimidine] |
| 50 to 200 nM | Fc1cnc(N2CCC(C3CC3CCOc3ccc(-n4ccnn4)cc3)CC2)nc1 (single isomer, unassigned) [Ex 83bF, cis-5-fluoro-2-[4-(2-{2-[4-(1H-1,2,3-triazol-1-yl)phenoxy]ethyl}cyclopropyl)piperidin-1-yl]pyrimidine] |
| < 10 nM | Fc1cnc(N2CCC(C3CC3CCOc3ccc(-n4ccnn4)cc3)CC2)nc1 (single isomer, unassigned) [Ex 83bS, cis-5-fluoro-2-[4-(2-{2-[4-(1H-1,2,3-triazol-1-yl)phenoxy]ethyl}cyclopropyl)piperidin-1-yl]pyrimidine] |
| < 10 nM | Clc1cnc(N2CCC(C3CC3CCOc3ccc(-n4cnnn4)cc3)CC2)nc1 (single isomer, unassigned) [Ex 83cF, cis-5-chloro-2-[4-(2-{2-[4-(1H-tetrazol-1-yl)phenoxy]ethyl}cyclopropyl)piperidin-1-yl]pyrimidine] |
| < 10 nM | Clc1cnc(N2CCC(C3CC3CCOc3ccc(-n4cnnn4)cc3)CC2)nc1 (single isomer, unassigned) [Ex 83cS, cis-5-chloro-2-[4-(2-{2-[4-(1H-tetrazol-1-yl)phenoxy]ethyl}cyclopropyl)piperidin-1-yl]pyrimidine] |
| 10 to 50 nM | Fc1cc(OCCC2CC2C2CCN(c3ncc(Cl)cn3)CC2)ccc1-n1cnnn1 (single isomer, unassigned) [Ex 83dF, cis-5-chloro-2-[4-(2-{2-[3-fluoro-4-(1H-tetrazol-1-yl)phenoxy]ethyl}cyclopropyl)piperidin-1-yl]pyrimidine] |
| < 10 nM | Fc1cc(OCCC2CC2C2CCN(c3ncc(Cl)cn3)CC2)ccc1-n1cnnn1 (single isomer, unassigned) [Ex 83dS, cis-5-chloro-2-[4-(2-{2-[3-fluoro-4-(1H-tetrazol-1-yl)phenoxy]ethyl}cyclopropyl)piperidin-1-yl]pyrimidine] |
| 50 to 200 nM | Cc1nnc(-c2ccc(OCCC3CC3C3CCN(c4ncc(F)cn4)CC3)cc2F)o1 (single isomer, unassigned) [Ex 83eF, cis-5-fluoro-2-[4-(2-{2-[3-fluoro-4-(5-methyl-1,3,4-oxadiazol-2-yl)phenoxy]ethyl}cyclopropyl)piperidin-1-yl]pyrimidine] |
| < 10 nM | Cc1nnc(-c2ccc(OCCC3CC3C3CCN(c4ncc(F)cn4)CC3)cc2F)o1 (single isomer, unassigned) [Ex 83eS, cis-5-fluoro-2-[4-(2-{2-[3-fluoro-4-(5-methyl-1,3,4-oxadiazol-2-yl)phenoxy]ethyl}cyclopropyl)piperidin-1-yl]pyrimidine] |

The remaining lines, values behind:

| SMILES | EC50 |
| --- | --- |
| Cc1cc(OC[C@@H]2C[C@@H]2CC2CCN(c3ncc(Cl)cn3)CC2)nc(C#N)n1 (racemic) [Ex 118, rac-cis-4-[(2-{[1-(5-chloropyrimidin-2-yl)piperidin-4-yl]methyl}cyclopropyl)methoxy]-6-methylpyrimidine-2-carbonitrile] | 10 to 50 nM |
| N#Cc1ccc(OC[C@@H]2C[C@@H]2CC2CCN(c3ncc(Cl)cn3)CC2)cc1F (racemic) [Ex 119, rac-cis 4-[(2-{[1-(5-chloropyrimidin-2-yl)piperidin-4-yl]methyl}cyclopropyl)methoxy]-2-fluorobenzonitrile] | > 200 nM |
| C[S+]([O-])c1ccc(OCCC2CC2C2CCN(c3ncc(Cl)cn3)CC2)cc1 (single isomer, unassigned) [Ex 33, Chiral-cis-5-chloro-2-[4-(2-{2-[4-(methylsulfinyl)phenoxy]ethyl}cyclopropyl)piperidin-1-yl]pyrimidine] | < 10 nM |
| Cc1nc(C#N)cc(OCCC2CC2C2CCN(c3ncc(Cl)cn3)CC2)n1 (single isomer, unassigned) [Ex 34, Chiral-cis-6-(2-{2-[1-(5-chloropyrimidin-2-yl)piperidin-4-yl]cyclopropyl}ethoxy)-2-methylpyrimidine-4-carbonitrile] | < 10 nM |
| Cc1cnc(N2CCC(C3CC3CCOc3cc(C#N)nc(C)n3)CC2)nc1 (single isomer, unassigned) [Ex 39, Chiral-cis-2-methyl-6-(2-{2-[1-(5-methylpyrimidin-2-yl)piperidin-4-yl]cyclopropyl}ethoxy)pyrimidine-4-carbonitrile] | < 10 nM |
| Cc1nnc(-c2ccc(OCCC3CC3C3CCN(c4ncc(Cl)cn4)CC3)cc2F)o1 (single isomer, unassigned) [Ex 83 F, cis-5-chloro-2-[4-(2-{2-[3-fluoro-4-(5-methyl-1,3,4-oxadiazol-2-yl)phenoxy]ethyl}cyclopropyl)piperidin-1-yl]pyrimidine] | < 10 nM |
| Cc1nnc(-c2ccc(OCCC3CC3C3CCN(c4ncc(Cl)cn4)CC3)cc2F)o1 (single isomer, unassigned) [Ex 83 S, cis-5-chloro-2-[4-(2-{2-[3-fluoro-4-(5-methyl-1,3,4-oxadiazol-2-yl)phenoxy]ethyl}cyclopropyl)piperidin-1-yl]pyrimidine] | < 10 nM |
| CS(=O)(=O)c1ccc(OCC[C@H]2C[C@@H]2C2CCN(c3ncc(Cl)cn3)CC2)cc1 [Ex 91, 5-chloro-2-[4-((1R,2R)-2-{2-[4-(methylsulfonyl)phenoxy]ethyl}cyclopropyl)piperidin-1-yl]pyrimidine] | 10 to 50 nM |
| O=C(NC1CC1)c1ccc(OCC[C@H]2C[C@@H]2C2CCN(c3ncc(Cl)cn3)CC2)cc1F [Ex 93, 4-(2-{(1R,2R)-2-[1-(5-chloropyrimidin-2-yl)piperidin-4-yl]cyclopropyl}ethoxy)-N-cyclopropyl-2-fluorobenzamide] | < 10 nM |
| N#Cc1ccc(OCC[C@H]2C[C@@H]2C2CCN(c3ncc(Cl)cn3)CC2)cc1F [Ex 94, 4-(2-{(1R,2R)-2-[1-(5-chloropyrimidin-2-yl)piperidin-4-yl]cyclopropyl}ethoxy)-2-fluorobenzonitrile] | 50 to 200 nM |
| Clc1cnc(N2CCC([C@H]3C[C@@H]3CCOc3ccc(-n4cncn4)cc3)CC2)nc1 [Ex 95, 5-chloro-2-[4-((1R,2R)-2-{2-[4-(1H-1,2,4-triazol-1-yl)phenoxy]ethyl}cyclopropyl)piperidin-1-yl]pyrimidine] | 10 to 50 nM |
| Cc1nnc(-c2ccc(OCC[C@H]3C[C@@H]3C3CCN(c4ncc(Cl)cn4)CC3)cc2F)o1 [Ex 96, 5-chloro-2-[4-((1R,2R)-2-{2-[3-fluoro-4-(5-methyl-1,3,4-oxadiazol-2-yl)phenoxy]ethyl}cyclopropyl)piperidin-1-yl)pyrimidine] | 10 to 50 nM |
| Fc1cc(OCC[C@H]2C[C@@H]2C2CCN(c3ncc(Cl)cn3)CC2)ccc1-c1nnc(C2CC2)o1 [Ex 97, 5-chloro-2-[4-((1R,2R)-2-{2-[4-(5-cyclopropyl-1,3,4-oxadiazol-2-yl)-3-fluorophenoxy]ethyl}cyclopropyl)piperidin-1-yl]pyrimidine] | 10 to 50 nM |
| CS(=O)(=O)c1ccc(OC[C@H]2C[C@@H]2CC2CCN(c3ncc(Cl)cn3)CC2)cc1 [Ex 103, 5-chloro-2-{4-[((1S,2S)-2-{[4-(methylsulfonyl)phenoxy]methyl}cyclopropyl)methyl]piperidin-1-yl}pyrimidine] | 10 to 50 nM |
| N#Cc1ccc(OC[C@@H]2C[C@H]2CC2CCN(c3ncc(Cl)cn3)CC2)cc1F [Ex 105, 4-[((1R,2R)-2-{[1-(5-chloropyrimidin-2-yl)piperidin-4-yl]methyl}cyclopropyl)methoxy]-2-fluorobenzonitrile] | > 200 nM |
| O=C(NC1CC1)c1ccc(OC[C@@H]2C[C@H]2CC2CCN(c3ncc(Cl)cn3)CC2)cc1F [Ex 107, 4-[((1R,2R)-2-{[1-(5-chloropyrimidin-2-yl)piperidin-4-yl]methyl}cyclopropyl)methoxy]-N-cyclopropyl-2-fluorobenzamide] | 10 to 50 nM |
| O=C(NC1CC1)c1ccc(OC[C@H]2C[C@@H]2CC2CCN(c3ncc(Cl)cn3)CC2)cc1F [Ex 108, 4-[((1S,2S)-2-{[1-(5-chloropyrimidin-2-yl)piperidin-4-yl]methyl}cyclopropyl)methoxy]-N-cyclopropyl-2-fluorobenzamide] | 10 to 50 nM |
| Cc1nnc(-c2ccc(OC[C@@H]3C[C@H]3CC3CCN(c4ncc(Cl)cn4)CC3)cc2F)o1 [Ex 109, 5-chloro-2-{4-[((1R,2R)-2-{[3-fluoro-4-(5-methyl-1,3,4-oxadiazol-2-yl)phenoxy]methyl}cyclopropyl)methyl]piperidin-1-yl}pyrimidine] | 50 to 200 nM |
| Cc1nnc(-c2ccc(OC[C@H]3C[C@@H]3CC3CCN(c4ncc(Cl)cn4)CC3)cc2F)o1 [Ex 110, 5-chloro-2-{4-[((1S,2S)-2-{[3-fluoro-4-(5-methyl-1,3,4-oxadiazol-2-yl)phenoxy]methyl}cyclopropyl)methyl]piperidin-1-yl}pyrimidine] | 10 to 50 nM |
| NS(=O)(=O)c1ccc(OC[C@H]2C[C@@H]2CC2CCN(c3ncc(Cl)cn3)CC2)cc1 [Ex 112, 4-[((1S,2S)-2-{[1-(5-chloropyrimidin-2-yl)piperidin-4-yl]methyl}cyclopropyl)methoxy]benzenesulfonamide] | 50 to 200 nM |
